Series [1] can be described thus: Lipophilicity, log D of the compound at pH 7.3 by HPLC. To be noted: buffer. In kind it is physicochemical.
In series [2] the target is Voltage-gated inwardly rectifying potassium channel KCNH2 (Homo sapiens, UniProt Q12809). Briefly: Displacement of [35S]MK499 from human ERG expressed in HEK cells. In kind it is cell-based, HEK293. On the technique in general: Loss of bound radioactivity is the signal in a displacement assay; it reports binding, not function.
Series [3] deals with T1, Cholesteryl ester transfer protein (Homo sapiens, UniProt P11597).
T1 sequence (P11597 whole entry): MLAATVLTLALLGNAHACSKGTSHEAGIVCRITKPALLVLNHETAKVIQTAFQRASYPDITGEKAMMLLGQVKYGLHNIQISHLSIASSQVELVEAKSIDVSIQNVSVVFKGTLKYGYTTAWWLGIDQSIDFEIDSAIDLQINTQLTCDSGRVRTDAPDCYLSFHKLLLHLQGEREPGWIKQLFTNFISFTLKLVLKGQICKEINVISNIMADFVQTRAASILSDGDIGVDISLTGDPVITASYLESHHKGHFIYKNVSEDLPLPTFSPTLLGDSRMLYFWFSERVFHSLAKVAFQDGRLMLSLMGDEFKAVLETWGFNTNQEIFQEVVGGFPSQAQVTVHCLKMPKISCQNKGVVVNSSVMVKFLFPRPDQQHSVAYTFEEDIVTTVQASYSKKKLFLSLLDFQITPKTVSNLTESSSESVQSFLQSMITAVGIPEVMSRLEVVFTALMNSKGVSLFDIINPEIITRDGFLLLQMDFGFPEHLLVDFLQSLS
The experiment in a line: Inhibition of CETP.

The next series concerns Mus musculus. Briefly: Increase of HDL cholesterol level in transgenic mouse model at 10 mg/kg. In kind it is functional.

Each structure is given as a SMILES string.

Chain of Voltage-gated inwardly rectifying potassium channel KCNH2 (Q12809 whole entry): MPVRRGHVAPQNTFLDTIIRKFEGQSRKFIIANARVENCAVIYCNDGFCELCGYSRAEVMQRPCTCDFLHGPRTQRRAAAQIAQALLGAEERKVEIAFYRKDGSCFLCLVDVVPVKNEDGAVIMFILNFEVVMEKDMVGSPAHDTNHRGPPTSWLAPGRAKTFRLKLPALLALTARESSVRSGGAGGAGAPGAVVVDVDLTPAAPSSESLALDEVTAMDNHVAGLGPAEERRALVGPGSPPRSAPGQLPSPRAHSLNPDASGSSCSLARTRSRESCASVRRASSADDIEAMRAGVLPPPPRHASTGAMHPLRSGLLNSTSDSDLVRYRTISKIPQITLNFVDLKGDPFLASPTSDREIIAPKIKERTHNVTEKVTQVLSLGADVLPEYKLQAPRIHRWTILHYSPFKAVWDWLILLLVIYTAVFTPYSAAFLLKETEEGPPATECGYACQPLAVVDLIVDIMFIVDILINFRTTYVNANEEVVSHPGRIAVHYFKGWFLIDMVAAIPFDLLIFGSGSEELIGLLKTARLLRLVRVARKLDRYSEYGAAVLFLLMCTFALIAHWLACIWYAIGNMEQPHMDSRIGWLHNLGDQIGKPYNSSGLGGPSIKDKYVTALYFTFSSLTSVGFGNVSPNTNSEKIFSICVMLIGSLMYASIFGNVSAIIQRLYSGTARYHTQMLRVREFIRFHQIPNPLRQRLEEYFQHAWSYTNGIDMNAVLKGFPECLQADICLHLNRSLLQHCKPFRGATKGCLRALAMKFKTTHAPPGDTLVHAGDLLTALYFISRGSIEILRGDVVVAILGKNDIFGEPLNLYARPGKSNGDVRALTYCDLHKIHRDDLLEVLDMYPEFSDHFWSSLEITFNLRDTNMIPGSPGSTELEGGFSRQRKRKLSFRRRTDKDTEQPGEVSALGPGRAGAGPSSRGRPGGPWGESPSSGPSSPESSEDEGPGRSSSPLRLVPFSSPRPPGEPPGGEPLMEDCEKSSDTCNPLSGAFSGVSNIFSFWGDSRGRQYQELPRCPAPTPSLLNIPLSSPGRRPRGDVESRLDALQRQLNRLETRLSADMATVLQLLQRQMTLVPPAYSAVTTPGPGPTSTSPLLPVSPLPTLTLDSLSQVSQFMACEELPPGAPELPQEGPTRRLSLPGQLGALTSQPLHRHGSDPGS

For `CC(C)c1cc(C#N)cc2nc(-c3ccc(C(=O)NCC4CN(c5ccc(-c6ccccc6C(N)=O)cn5)C(=O)O4)cc3)oc12` (racemic), the pH-dependent lipophilicity (logD) in series [1] came out at 4.8. Also, the IC50 in series [2] was above 30 µM.

With `CC(C)c1cc(C#N)cc2nc(-c3ccc(C(=O)NC[C@H]4CC[C@H](c5ccc(Cl)cc5)CC4)cc3)oc12`, the IC50 is 0.077 µM in series [3] and above 30 µM in series [2].

With `CC(C)Oc1ccc(F)cc1-c1ccc(N2C[C@H](CNC(=O)c3ccc(-c4nc5cc(C#N)cc(C(C)C)c5o4)cc3)OC2=O)nc1`, the IC50 in series [3] was 0.154 µM; in series [2], above 30 µM.

Turning to `CC(C)Oc1ccc(F)cc1-c1ccc(N2CCC(CNC(=O)c3ccc(-c4nc5cc(C#N)cc(C(C)C)c5o4)cc3)CC2)nc1`, the logD in series [1] turned out to be 7.2. In the series with Mus musculus, this molecule came in with an Activity of 24 mg/dL.

In the case of `CC(C)c1cc(C#N)cc2nc(-c3ccc(C(=O)NC[C@@]4(C)CN(c5ccc(-c6ccccc6OC(F)(F)F)cn5)C(=O)O4)cc3)oc12`, the half-inhibitory concentration (IC50) in series [3] is 0.018 µM; in series [2], above 30 µM. In addition, the Activity in the series on Mus musculus came to 27 mg/dL.

`CC(C)c1cc(C#N)cc2nc(-c3ccc(C(=O)NC[C@H]4CC[C@H](c5cccc(C(F)(F)F)c5)CC4)cc3)oc12`: the IC50 in series [3] worked out at 0.1 µM. In other words, the sub-micromolar range.

On to `CC(C)c1cc(C#N)cc2nc(-c3ccc(C(=O)NCC4CN(c5ccc(-c6ccccc6OC(F)(F)F)cn5)C(=O)O4)cc3)oc12` (racemic), for which the IC50 in series [3] was 0.067 µM; in series [2], above 30 µM. The log distribution coefficient (logD) in series [1] amounted to 6.4.

Regarding `CC(C)c1cc(C#N)cc2nc(-c3ccc(C(=O)NC[C@H]4CC[C@H](c5ccc(C(F)(F)F)cc5)CC4)cc3)oc12`, the values for the concentration for half-maximal inhibition (IC50) in series [3] and in series [2] were 0.04 µM and above 30 µM, respectively.

With `Cc1ccc(OC(C)C)c(-c2ccc(N3CC(CNC(=O)c4ccc(-c5nc6cc(C#N)cc(C(C)C)c6o5)cc4)OC3=O)nc2)c1` (racemic), the concentration for half-maximal inhibition (IC50) in series [3] is 0.171 µM. The pH-dependent lipophilicity (logD) in series [1] turned out to be 6.9.

`CC(C)c1cc(C#N)cc2nc(-c3ccc(C(=O)NC[C@H]4CC[C@@H](c5ccc(C(F)(F)F)cc5)CC4)cc3)oc12`: the IC50 is 0.134 µM in series [3] and above 30 µM in series [2].

For `CC(C)c1cc(C#N)cc2nc(-c3ccc(C(=O)NC[C@H]4CC[C@H](c5cc(C(F)(F)F)cc(C(F)(F)F)c5)CC4)cc3)oc12`, the IC50 in series [3] was 0.084 µM; in series [2] it was above 30 µM.

`CC(C)c1cc(C#N)cc2nc(-c3ccc(C(=O)NC[C@]4(C)CN(c5ccc(-c6ccccc6OC(F)(F)F)cn5)C(=O)O4)cc3)oc12`: the results for the half-maximal inhibitory concentration (IC50) in series [3] and in series [2] were 0.022 µM and above 30 µM, respectively. In the series with Mus musculus, this molecule showed an Activity of 33 mg/dL.

With `CC(C)c1cc(C#N)cc2nc(-c3ccc(C(=O)NC[C@H]4CN(c5ccc(-c6ccccc6OC(F)(F)F)cn5)C(=O)O4)cc3)oc12`, the half-maximal inhibitory concentration (IC50) in series [3] turned out to be 0.14 µM; in series [2] it was 3.58 µM.

Regarding `Cc1ccc(-c2ccc(N3CC(CNC(=O)c4ccc(-c5nc6cc(C#N)cc(C(C)C)c6o5)cc4)OC3=O)nc2)s1` (racemic), the 50% inhibitory concentration (IC50) is 0.955 µM in series [3] and 12.7 µM in series [2]. Also, the logD in series [1] was found to be 6.2.

For the molecule `CC(C)c1cc(C#N)cc2nc(-c3ccc(C(=O)NC[C@H]4CC[C@H](c5ccc(C(C)(C)C)cc5)CC4)cc3)oc12`, the results for the IC50 in series [3] and in series [2] were 0.038 µM and above 30 µM, respectively. In addition, in the series with Mus musculus, the Activity came out at 18 mg/dL.

In the case of `C=C(C)c1ccc(N2CC(CNC(=O)c3ccc(-c4nc5cc(C#N)cc(C(C)C)c5o4)cc3)OC2=O)nc1` (racemic), the IC50 in series [3] was 2.34 µM; in series [2] it was above 30 µM. In series [1], the logD worked out at 5.4.

Turning to `CC(C)c1cc(C#N)cc2nc(-c3ccc(C(=O)NC[C@H]4CC[C@@H](c5ccc(C(C)(C)C)cc5)CC4)cc3)oc12`, the half-inhibitory concentration (IC50) was 0.037 µM in series [3] and above 30 µM in series [2]. Moreover, the Activity with Mus musculus came out at 17 mg/dL.

For `CC(C)c1cc(C#N)cc2nc(-c3ccc(C(=O)NCC4CN(c5ccc(-c6ccccc6C#N)cn5)C(=O)O4)cc3)oc12` (racemic), the figures for the IC50 in series [3] and in series [2] were 0.829 µM and 1.19 µM, respectively. Besides, the pH-dependent lipophilicity (logD) in series [1] worked out at 5.1.

Regarding `CC(C)c1cc(C#N)cc2nc(-c3ccc(C(=O)NC[C@H]4CC[C@@H](c5cc(C(F)(F)F)cc(C(F)(F)F)c5)CC4)cc3)oc12`, the IC50 in series [3] was 1.04 µM; in series [2], above 30 µM.

In the case of `Cc1cccc([C@H]2CC[C@H](CNC(=O)c3ccc(-c4nc5cc(C#N)cc(C(C)C)c5o4)cc3)CC2)c1`, the IC50 in series [3] is 0.133 µM.

`CC(C)Oc1ccc(F)cc1-c1ccc(N2CC(CNC(=O)c3ccc(-c4nc5cc(C#N)cc(C(C)C)c5o4)cc3)OC2=O)nc1` (racemic): the concentration for half-maximal inhibition (IC50) was 0.124 µM in series [3] and above 30 µM in series [2]. In series [1], this molecule came in with a pH-dependent lipophilicity (logD) of 6.6.

As for `CC(C)c1cc(C#N)cc2nc(-c3ccc(C(=O)NC[C@@H]4CN(c5ccc(-c6ccccc6OC(F)(F)F)cn5)C(=O)O4)cc3)oc12`, the IC50 in series [3] was 0.046 µM; in series [2], above 30 µM. Further, in the series with Mus musculus, the Activity was 19 mg/dL.

As to `CC(C)c1cc(C#N)cc2nc(-c3ccc(C(=O)NC[C@H]4CC[C@@H](c5cccc(C(F)(F)F)c5)CC4)cc3)oc12`, in series [3], the half-inhibitory concentration (IC50) amounted to 0.078 µM.

On to `CC(C)Oc1ccc(F)cc1-c1ccc(N2C[C@@H](CNC(=O)c3ccc(-c4nc5cc(C#N)cc(C(C)C)c5o4)cc3)OC2=O)nc1`, for which the IC50 in series [3] is 0.066 µM; in series [2], above 30 µM. The molecule further had an Activity with Mus musculus of 24 mg/dL.

In the case of `Cc1cccc([C@H]2CC[C@@H](CNC(=O)c3ccc(-c4nc5cc(C#N)cc(C(C)C)c5o4)cc3)CC2)c1`, in series [3], 0.145 µM corresponded to half-maximal inhibition (IC50).

Take `CC(C)c1cc(C#N)cc2nc(-c3ccc(C(=O)NCC4CN(c5ccc(Cl)cn5)C(=O)O4)cc3)oc12` (racemic): the IC50 in series [3] was 19.2 µM. This molecule showed a logD in series [1] of 5.8.

One may read the logD as lipophilicity at a set pH, counting ionised and neutral species. Low values mean a more hydrophilic compound, high ones a more lipophilic compound. One may read the IC50 as the point on the concentration scale where inhibition reaches its midpoint. The low end stands for greater potency, the high end for weaker potency.

The values above are taken from ChEMBL document CHEMBL1770083, “2-(4-Carbonylphenyl)benzoxazole inhibitors of CETP: attenuation of hERG binding and improved HDLc-raising efficacy” (Bioorg Med Chem Lett, 2011).
